In PubChem BioAssay AID330 (DTP/NCI, 2004) one finds T/C data, which are given here for 23 compounds.

“And” between values parts separate entries of the source, which are not always exact repeats. Equal entries are not always repeated. Inconclusive results and toxic doses are left out.

The test system of the assay is P388 leukemia ip, CD2F1 mice, survival T/C. The assay is described as follows: NCI In Vivo Anticancer Drug Screen. Data for tumor model P388 Leukemia (intraperitoneal) in CD2F1 (CDF1) mice. To be noted: endpoint: median survival time, higher = longer survival. In outline:
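Mice carrying the transplanted tumor received test compound or vehicle. Survival was recorded in each group, and the value is the treated-group measurement divided by that of the vehicle-treated control group.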

Where [1] appears, read: dose: 50.0 mg/kg/injection, schedule: Q01DX009 (ip), vehicle: saline with Tween-80.
Setting [2] is: dose: 100.0 mg/kg/injection, schedule: Q01DX009 (ip), vehicle: saline with Tween-80.
[3] abbreviates: dose: 200.0 mg/kg/injection, schedule: Q01DX009 (ip), vehicle: saline with Tween-80.
Setting [4] is: dose: 25.0 mg/kg/injection, schedule: Q01DX009 (ip), vehicle: Klucel (hydroxypropylcellulose) (HPC).
Setting [5] is: dose: 50.0 mg/kg/injection, schedule: Q01DX009 (ip), vehicle: Klucel (hydroxypropylcellulose) (HPC).
Where [6] appears, read: dose: 100.0 mg/kg/injection, schedule: Q01DX009 (ip), vehicle: Klucel (hydroxypropylcellulose) (HPC).
Where [7] appears, read: dose: 200.0 mg/kg/injection, schedule: Q01DX009 (ip), vehicle: Klucel (hydroxypropylcellulose) (HPC).
Setting [8] is: dose: 50.0 mg/kg/injection, schedule: Q01DX009 (ip), vehicle: saline.
Setting [9] is: dose: 100.0 mg/kg/injection, schedule: Q01DX009 (ip), vehicle: saline.
[10] abbreviates: dose: 200.0 mg/kg/injection, schedule: Q01DX009 (ip), vehicle: saline.
The mark [11] stands for this setting: dose: 16.0 mg/kg/injection, schedule: Q01DX009 (ip), vehicle: Klucel (hydroxypropylcellulose) (HPC).
Setting [12] is: dose: 32.0 mg/kg/injection, schedule: Q01DX009 (ip), vehicle: Klucel (hydroxypropylcellulose) (HPC).
[13] abbreviates: dose: 64.0 mg/kg/injection, schedule: Q01DX009 (ip), vehicle: Klucel (hydroxypropylcellulose) (HPC).
The mark [14] stands for this setting: dose: 50.0 mg/kg/injection, schedule: Q01DX005 (ip), vehicle: Klucel (hydroxypropylcellulose) (HPC).
Setting [15] is: dose: 100.0 mg/kg/injection, schedule: Q01DX005 (ip), vehicle: Klucel (hydroxypropylcellulose) (HPC).
Setting [16] is: dose: 50.0 mg/kg/injection, schedule: Q01DX005 (ip), vehicle: saline with Tween-80.
Where [17] appears, read: dose: 100.0 mg/kg/injection, schedule: Q01DX005 (ip), vehicle: saline with Tween-80.
[18] abbreviates: dose: 200.0 mg/kg/injection, schedule: Q01DX005 (ip), vehicle: saline with Tween-80.

As for `CC(C)C(N)S(=O)(=O)O` (stereo not drawn), the T/C runs as follows: under setting [1], 115 % of control; under setting [2], 94 % of control; under setting [3], 105 % of control.

For the compound `CC(O)CC1(c2ccccc2)C(=O)NC(=O)NC1=O` (stereo not drawn), the T/C under setting [1] was 98 % of control, the T/C under setting [2] is 98 % of control and the T/C under setting [3] is 95 % of control.

For the compound `CCNCCNc1ccc(NCCNCC)c2c1C(=O)c1ccccc1C2=O`, the T/C reads like this: (dose: 4.0 mg/kg/injection, schedule: Q01DX009 (ip), vehicle: acid diluted with saline) 157 % of control; (dose: 8.0 mg/kg/injection, schedule: Q01DX009 (ip), vehicle: acid diluted with saline) 174 % of control; (dose: 12.5 mg/kg/injection, schedule: Q01DX009 (ip), vehicle: other) 168 % of control; (dose: 16.0 mg/kg/injection, schedule: Q01DX009 (ip), vehicle: acid diluted with saline) 166 % of control.

On to `COc1ccc2c(c1C)CN1CCc3cc4c(cc3C1=C2)OCO4`, for which the T/C reads like this: (dose: 60.0 mg/kg/injection, schedule: Q01DX005 (ip), vehicle: saline with Tween-80) 99 % of control; (dose: 120.0 mg/kg/injection, schedule: Q01DX005 (ip), vehicle: saline with Tween-80) 117 % of control; (dose: 240.0 mg/kg/injection, schedule: Q01DX005 (ip), vehicle: saline with Tween-80) 100 % of control.

Regarding `CC(O)CNC1=C(Cl)C(=O)c2ccccc2C1=O` (stereo not drawn), the T/C by setting is: (dose: 12.5 mg/kg/injection, schedule: Q01DX009 (ip), vehicle: distilled water + Tween-80) 100 % of control; (dose: 25.0 mg/kg/injection, schedule: Q01DX009 (ip), vehicle: distilled water + Tween-80) 103 % of control; (dose: 50.0 mg/kg/injection, schedule: Q01DX009 (ip), vehicle: distilled water + Tween-80) 100 % of control; (dose: 100.0 mg/kg/injection, schedule: Q01DX009 (ip), vehicle: distilled water + Tween-80) 98 % of control; (dose: 200.0 mg/kg/injection, schedule: Q01DX009 (ip), vehicle: distilled water + Tween-80) 92 % of control.

For `O=S(=O)(O)SNCCN1CCOCC1`, the T/C (dose: 6.25 mg/kg/injection, schedule: Q01DX009 (ip), vehicle: saline) is 105 % of control; the T/C (dose: 12.5 mg/kg/injection, schedule: Q01DX009 (ip), vehicle: saline) is 110 % of control; the T/C (dose: 25.0 mg/kg/injection, schedule: Q01DX009 (ip), vehicle: saline) was 110 % of control.

Consider `CC(C)c1cc(/C=C2/OC(=O)c3ccccc32)cc(C(C)C)c1O`, for which the T/C (dose: 100.0 mg/kg/injection, schedule: Q04DX002 (ip), vehicle: saline) was 101 % of control; the T/C (dose: 200.0 mg/kg/injection, schedule: Q04DX002 (ip), vehicle: saline) is 100 % of control; the T/C (dose: 400.0 mg/kg/injection, schedule: Q04DX002 (ip), vehicle: saline) is 106 % of control.

As to `O=C(Nc1nccs1)Nc1cc(F)ccc1F`, the T/C under setting [4] is 90 % of control, the T/C under setting [5] was 90 % of control, the T/C under setting [6] was 90 % of control and the T/C under setting [7] was 90 % of control.

For `CCOC(=O)CS(=O)(=O)CCCCCCCCCCS(=O)(=O)CC(=O)OCC`, the T/C reads like this: under setting [8], 102 % of control; under setting [9], 99 % of control; under setting [10], 89 % of control.

With `CC1(C(=O)O)CCCC2(C)C3CC(=O)OC3(CC(=O)O)CCC12` (stereo not drawn), the T/C is 91 % of control (dose: 7.5 mg/kg/injection, schedule: Q01DX009 (ip), vehicle: saline + alcohol); 98 % of control (dose: 15.0 mg/kg/injection, schedule: Q01DX009 (ip), vehicle: saline + alcohol); 103 % of control (dose: 30.0 mg/kg/injection, schedule: Q01DX009 (ip), vehicle: saline + alcohol).

Take `CCn1c(=O)n(C)c(=O)c2[nH]c(Cl)nc21`: the T/C is, setting by setting: under setting [11], 105 % of control; under setting [4], 92 % of control; under setting [12], 104 % of control; under setting [5], 91 % of control; under setting [13], 97 % of control; under setting [6], 94 % of control.

Turning to `CC(C)c1ccc(Nc2n[nH]c(=S)s2)cc1`, the T/C was 105 % of control under setting [14]; 100 % of control under setting [15]; 99 % of control (dose: 200.0 mg/kg/injection, schedule: Q01DX005 (ip), vehicle: Klucel (hydroxypropylcellulose) (HPC)).

As to `CCN(CC)c1c(C)nnc2c3c(-c4ccccc4)c(-c4ccccc4)nnc3nn12`, the T/C is 86 % of control (dose: 50.0 mg/kg/injection, schedule: Q04DX003 (ip), vehicle: saline with Tween-80); 86 % of control (dose: 200.0 mg/kg/injection, schedule: Q04DX003 (ip), vehicle: saline with Tween-80); 91 % of control (dose: 400.0 mg/kg/injection, schedule: Q04DX003 (ip), vehicle: saline with Tween-80).

On to `Nc1cnc2nc(N)[nH]c(=O)c2c1`, for which the T/C (dose: 100.0 mg/kg/injection, schedule: Q01DX009 (ip), vehicle: saline sonified) was 120 % of control; the T/C (dose: 200.0 mg/kg/injection, schedule: Q01DX009 (ip), vehicle: saline sonified) was 110 % of control; the T/C (dose: 400.0 mg/kg/injection, schedule: Q01DX009 (ip), vehicle: saline sonified) was 105 % of control.

On to `Cc1cc(=O)oc2c1cc(OCC(=O)OCCN1CCCCC1)c1occ(C)c12`, for which the T/C by setting is: under setting [16], 99 % of control; under setting [17], 92 % of control; under setting [18], 93 % of control.

Regarding `O=C1CSc2cc(F)ccc2N1`, the T/C reads like this: under setting [8], 91 % of control; under setting [9], 91 % of control; under setting [10], 97 % of control.

As for `O=[N+]([O-])c1ccc(S(=O)C2CCCCC2Cl)c([N+](=O)[O-])c1` (stereo not drawn), the T/C is 110 % of control (dose: 100.0 mg/kg/injection, schedule: Q04DX002 (ip), vehicle: Klucel (hydroxypropylcellulose) (HPC)) and 113 % of control (dose: 200.0 mg/kg/injection, schedule: Q04DX002 (ip), vehicle: Klucel (hydroxypropylcellulose) (HPC)).

In the case of `Cc1ccc(S(=O)(=O)N/N=C2/C=CC3(CCCCC3)CC2)cc1`, the T/C was 109 % of control under setting [5], 102 % of control under setting [6] and 111 % of control under setting [7].

Turning to `CN1C2C=C(c3ccc(C(F)(F)F)cc3)CC1CC2` (stereo not drawn), the T/C by setting is: (dose: 25.0 mg/kg/injection, schedule: Q01DX005 (ip), vehicle: Klucel (hydroxypropylcellulose) (HPC)) 100 % of control and 107 % of control; under setting [14], 106 % of control; (dose: 50.0 mg/kg/injection, schedule: Q01DX005 (ip), vehicle: saline) 102 % of control; under setting [15], 98 % of control; (dose: 100.0 mg/kg/injection, schedule: Q01DX005 (ip), vehicle: saline) 104 % of control.

In the case of `C#Cc1cccc(N=Cc2cc(Cl)cc(Cl)c2O)c1`, the T/C is 102 % of control under setting [16], 102 % of control under setting [17] and 108 % of control under setting [18].

With `CCn1c(=O)c2[nH]c(Cl)nc2n(CCCl)c1=O`, the T/C was 102 % of control and 118 % of control under setting [11]; 111 % of control and 117 % of control under setting [12]; 122 % of control under setting [13]; 110 % of control (dose: 128.0 mg/kg/injection, schedule: Q01DX009 (ip), vehicle: Klucel (hydroxypropylcellulose) (HPC)).

With `NCC(CC(=O)O)c1ccc(Cl)cc1` (stereo not drawn), the T/C runs as follows: under setting [14], 94 % of control; under setting [15], 93 % of control.

As for `CCc1cc2c(cc1C(=O)CBr)C(C)(C)CCC2(C)C`, the T/C by setting is: (dose: 6.25 mg/kg/injection, schedule: Q01DX009 (ip), vehicle: saline with Tween-80) 109 % of control; (dose: 12.5 mg/kg/injection, schedule: Q01DX009 (ip), vehicle: saline with Tween-80) 113 % of control; (dose: 12.5 mg/kg/injection, schedule: Q04DX003 (ip), vehicle: saline with Tween-80) 118 % of control; (dose: 25.0 mg/kg/injection, schedule: Q04DX003 (ip), vehicle: saline with Tween-80) 113 % of control.
